# Where “and” joins values, the source holds several entries; their conditions need not be identical. Equal values may be shown once.
# How the values were obtained:
# [1] = target: T1, wild type GPR17 (Homo sapiens, UniProt Q13304); experiment: FAC-MS screening on GPR17-IAM-I column; format: binding; details: for t/tc × 100, percentage of breakthrough time with respect to cangrelor / t (min), breakthrough time of the ligand with the immobilized GPR17 / binding class from FAC-MS breakthrough: column GPR17-IAM-I; for t (min), breakthrough time of the ligand with the immobilized GPR17: each 1 µM, single ranking experiment; for binding class from FAC-MS breakthrough: relative to cangrelor, MRS 2179 and UDP
# [2] = target: T1, wild type GPR17; experiment: FAC-MS screening on GPR17-IAM-II column; format: binding; details: Library A; for breakthrough time GPR17-IAM-II (Table 5): 1 µM each; for breakthrough time GPR17-IAM-II (Table 5) / t (min), breakthrough time: column GPR17-IAM-II (19.5 million cells); for t/tC × 100: column GPR17-IAM-II; for t (min), breakthrough time: single ranking experiment
# [3] = target: mutated GPR17 receptor (Arg255Ile) (Homo sapiens, UniProt Q13304, R283I); experiment: FAC-MS screening on mutated GPR17-IAM column; format: binding; details: Library A, mutated GPR17-IAM column (19.5 million cells); for breakthrough time Mutated GPR17-IAM (Table 5): 1 µM each
# [4] = target: R255I mutated GPR17 receptor (Homo sapiens, UniProt Q13304, R283I); experiment: [35S]GTPγS binding functional assay, 1321N1 cells expressing mutated GPR17; format: biochemical; details: [35S]GTPγS EC50/IC50, P < 0.05 for antagonists
# [5] = target: T1, wild type GPR17; details: cited from earlier work
# [6] = target: T1, wild type GPR17; experiment: [35S]GTPγS binding functional assay, 1321N1 cells expressing wild-type GPR17; format: biochemical
# [7] = test system: P2Y receptors; details: as listed in Table 1; cited from earlier work
# T1 sequence (Q13304 29-367): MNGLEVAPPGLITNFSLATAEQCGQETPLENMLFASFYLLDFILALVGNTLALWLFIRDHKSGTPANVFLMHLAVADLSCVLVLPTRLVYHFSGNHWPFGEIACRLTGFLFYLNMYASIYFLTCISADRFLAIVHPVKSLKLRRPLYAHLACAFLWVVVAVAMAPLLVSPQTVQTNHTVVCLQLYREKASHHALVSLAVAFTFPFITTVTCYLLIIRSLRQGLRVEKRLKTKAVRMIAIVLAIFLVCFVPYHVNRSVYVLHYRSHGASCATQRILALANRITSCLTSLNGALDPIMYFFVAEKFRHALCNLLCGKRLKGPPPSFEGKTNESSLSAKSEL
# mutated GPR17 receptor (Arg255Ile), sequence (Q13304 29-367 R283I): as the sequence (Q13304 29-367) above, with R255I counted along it
# R255I mutated GPR17 receptor, sequence (Q13304 29-367 R283I): as the sequence (Q13304 29-367) above, with R255I counted along it
Structure (SMILES),"t/tc × 100, percentage of breakthrough time with respect to cangrelor ([1]; Library A mixture)","t/tc × 100, percentage of breakthrough time with respect to cangrelor ([1]; Library B mixture)","t (min), breakthrough time of the ligand with the immobilized GPR17 ([1]; Library B mixture)",breakthrough time GPR17-IAM-II (Table 5) [2],t/tC × 100 [2],"t (min), breakthrough time [2]",breakthrough time Mutated GPR17-IAM (Table 5) [3],"t (min), breakthrough time [3]",change in affinity toward mutated vs wild type receptor [4],profile at GPR17 [5],pharmacological profile (agonist/antagonist) in [35S]GTPγS binding ([6]; wild-type GPR17),increase in [35S]GTPγS binding by compound alone ([6]; wild-type GPR17),pharmacology [7],binding class from FAC-MS breakthrough [1],"t/tc × 100, percentage of breakthrough time with respect to cangrelor ([1]; Library A mixture, listed as MRS 2179)","increase of activity on replacement of 3-nitrogen by CH (8 versus 7) ([6]; wild-type GPR17, EC50 comparison)",Kd value hypothesized from the chromatographic data ([1]; elutes after cangrelor)
"CSCCNc1nc(SCCC(F)(F)F)nc2c1ncn2[C@@H]1O[C@H](COP(=O)([O-])OP(=O)([O-])C(Cl)(Cl)P(=O)([O-])[O-])[C@@H](O)[C@H]1O.[Na+].[Na+].[Na+].[Na+] [Cangrelor, cangrelor, reference compound]",100.00%,100.00%,12.20 min,10.60,100.00%,10.60 min and 10.6 min,13.16,13.16 min,significant increase in affinity,antagonists,,,,,,,
CNc1ncnc2c1ncn2[C@@H]1O[C@H](COP(=O)(O)OP(=O)(O)OP(=O)(O)O)[C@@H](O)[C@H]1O.N.N.N.N [Compound 5],,,,3.69,34.81%,3.69 min,4.08,,,,,,,,,,
N.N.N.N.O=P(O)(O)OP(=O)(O)OP(=O)(O)OC[C@H]1O[C@@H](n2cnc3c(NC4CCCC4)ncnc32)[C@H](O)[C@@H]1O [Compound 6],49.90%,,,5.67,53.49%,5.67 min,7.08,,,,agonist profile,,,,,,
N.N.Nc1nc(Cl)nc2c1ncn2[C@H]1C[C@H](OP(=O)(O)O)[C@@H](COP(=O)(O)O)O1 [Compound 12],25.99%,,,3.55,33.49%,3.55 min,3.54,,,,antagonist profile,did not induce any significant increase,,,,,
"O=c1ccn([C@@H]2O[C@H](COP(=O)([O-])OP(=O)([O-])[O-])[C@@H](O)[C@H]2O)c(=O)[nH]1.[Na+].[Na+].[Na+] [UDP, uridine diphosphate]",13% and 13.03%,12% and 12.30%,1.50 min,2.69,25.38%,2.69 min,2.15,2.15 min,a trend toward a reduced affinity,agonist,,,P2Y agonist,,,,
N.N.N.O=c1[nH]c(=O)n([C@@H]2O[C@H](COP(=O)(O)OP(=O)(O)O)[C@@H](O)[C@H]2O)cc1I [Compound 13],16.54%,,,2.79,26.32%,2.79 min,2.51,2.51 min,a trend toward a reduced affinity,,agonist profile,,,weak binders,,,
"CNc1ncnc2c1ncn2[C@H]1C[C@H](OP(=O)(O)O)[C@@H](COP(=O)(O)O)O1.N.N [MRS2179, MRS 2179]",28.92%,28% and 27.87%,3.40 min,3.62,34.15%,3.62 min,3.47,3.47 min,significant increase in affinity,antagonists,,,P2Y1 competitive Antagonist,,29%,,
"CNc1nc(Cl)nc2c1ncn2[C@@H]1O[C@H](COP(=O)(O)OP(=O)(O)OP(=O)(O)O)[C@@H](O)[C@H]1O.N.N.N.N [Compound 7, 2.-choro-N^6 - methyladenosine Triphospate]",37.56%,,,4.50,42.45%,4.50 min and 4.5 min,5.27,,,,agonist profile,,,,,,
"CCCCC#Cc1cn([C@@H]2O[C@H](COP(=O)(O)OP(=O)(O)O)[C@@H](O)[C@H]2O)c(=O)[nH]c1=O [Compound 14, 5-Hexynyluridine Diphosphate]",19.67%,,,2.97,28.02%,2.97 min,2.90,,,,,,,weak binders,,,
"CNc1nc(Cl)cc2c1ncn2[C@@H]1O[C@H](COP(=O)(O)OP(=O)(O)OP(=O)(O)O)[C@@H](O)[C@H]1O.N.N.N.N [Compound 8, 2.-choro-3-deaza-N^6-- methyladenosine Triphospate]",45.05%,,,4.77,45.00%,4.77 min,5.79,,,,agonist profile,,,,,7 fold,
N.N.N.N.Nc1nc(C#Cc2ccccc2)nc2c1ncn2[C@@H]1O[C@H](COP(=O)(O)OP(=O)(O)OP(=O)(O)O)[C@@H](O)[C@H]1O [Compound 4],120.37%,,,13.07,123.30%,13.07 min,16.07,16.07 min,a trend toward an increased affinity,,agonist profile,,"P2Y1,12antogonist",high binding candidates,,,subnanomolar

# — article PMC6201305 (Journal of medicinal chemistry, 2010)
